In ChEMBL document CHEMBL3774345, “Synthesis of new diarylamides with pyrimidinyl pyridine scaffold and evaluation of their anti-proliferative effect on cancer cell lines” (Bioorg Med Chem Lett, 2016):

Columns and labels:
[1] = Cytotoxicity against human HCT15 cells assessed as cell growth at 10^-6 M after 24 hrs by SRB assay; assay type: functional; settings: HCT-15, 24 h, read-out: Activity
[2] = test system: K562; experiment: Cytotoxicity against human K562 cells assessed as cell growth at 10^-8 M after 24 hrs by SRB assay; assay type: functional; settings: K562, 24 h, read-out: Activity
[3] = Cytotoxicity against human OVCAR4 cells assessed as cell growth at 10^-6 M after 24 hrs by SRB assay; assay type: functional; settings: OVCAR-4, 24 h, read-out: Activity
[4] = Cytotoxicity against human SF539 cells assessed as cell growth at 10^-5 M after 24 hrs by SRB assay; assay type: functional; settings: SF-539, 24 h, read-out: Activity
[5] = test system: SK-MEL-28; experiment: Cytotoxicity against human SK-MEL-28 cells assessed as cell growth at 10^-8 M after 24 hrs by SRB assay; assay type: functional; settings: SK-MEL-28, 24 h, read-out: Activity
[6] = Cytotoxicity against human HL-60(TB) cells assessed as cell growth at 10^-5 M after 24 hrs by SRB assay; assay type: functional; settings: HL-60, 24 h, read-out: Activity
[7] = Cytotoxicity against human Caki1 cells assessed as cell growth at 10^-4 M after 24 hrs by SRB assay; assay type: functional; settings: CAKI-1, 24 h, read-out: Activity
[8] = test system: CCRF-CEM; experiment: Cytotoxicity against human CCRF-CEM cells assessed as cell growth at 10^-4 M after 24 hrs by SRB assay; assay type: functional; settings: read-out: Activity
[9] = Cytotoxicity against human RPMI8226 cells after 24 hrs by SRB assay; assay type: functional; settings: RPMI-8226, 24 h
[10] = Cytotoxicity against human TK10 cells assessed as cell growth at 10^-7 M after 24 hrs by SRB assay; assay type: functional; settings: TK-10, 24 h, read-out: Activity
[11] = Cytotoxicity against human MOLT4 cells assessed as cell growth at 10^-7 M after 24 hrs by SRB assay; assay type: functional; settings: MOLT-4, 24 h, read-out: Activity
[12] = Cytotoxicity against human NCI-ADR-RES cells assessed as cell growth at 10^-6 M after 24 hrs by SRB assay; assay type: functional; settings: read-out: Activity
[13] = test system: SR; experiment: Cytotoxicity against human SR cells assessed as cell growth at 10^-5 M after 24 hrs by SRB assay; assay type: functional; settings: read-out: Activity
[14] = test system: NCI-H460; experiment: Cytotoxicity against human NCI-H460 cells assessed as cell growth at 10^-6 M after 24 hrs by SRB assay; assay type: functional; settings: NCI-H460, 24 h, read-out: Activity
[15] = test system: A498; experiment: Cytotoxicity against human A498 cells assessed as cell growth at 10^-5 M after 24 hrs by SRB assay; assay type: functional; settings: A498, 24 h, read-out: Activity
[16] = test system: A549; experiment: Cytotoxicity against human A549 cells assessed as cell growth at 10^-5 M after 24 hrs by SRB assay; assay type: functional; settings: A549, 24 h, read-out: Activity
[17] = Cytotoxicity against human RXF393 cells assessed as cell growth at 10^-8 M after 24 hrs by SRB assay; assay type: functional; settings: RXF 393, 24 h, read-out: Activity
[18] = Cytotoxicity against human UACC62 cells assessed as cell growth at 10^-5 M after 24 hrs by SRB assay; assay type: functional; settings: UACC-62, 24 h, read-out: Activity
[19] = Cytotoxicity against human HCC2998 cells after 24 hrs by SRB assay; assay type: functional, cell-based; settings: HCC 2998, 24 h
[20] = test system: ACHN; experiment: Cytotoxicity against human ACHN cells assessed as cell growth at 10^-5 M after 24 hrs by SRB assay; assay type: functional; settings: read-out: Activity
[21] = Cytotoxicity against human PC3 cells assessed as cell growth at 10^-7 M after 24 hrs by SRB assay; assay type: functional; settings: PC-3, 24 h, read-out: Activity
[22] = Cytotoxicity against human IGROV1 cells assessed as cell growth at 10^-5 M after 24 hrs by SRB assay; assay type: functional; settings: IGROV-1, 24 h, read-out: Activity
[23] = test system: A498; experiment: Cytotoxicity against human A498 cells assessed as cell growth at 10^-7 M after 24 hrs by SRB assay; assay type: functional; settings: A498, 24 h, read-out: Activity
[24] = test system: HT-29; experiment: Cytotoxicity against human HT-29 cells assessed as cell growth at 10^-6 M after 24 hrs by SRB assay; assay type: functional; settings: HT-29, 24 h, read-out: Activity
[25] = test system: SK-MEL-2; experiment: Cytotoxicity against human SK-MEL-2 cells assessed as cell growth at 10^-5 M after 24 hrs by SRB assay; assay type: functional; settings: SK-MEL-2, 24 h, read-out: Activity
[26] = test system: Malme-3M; experiment: Cytotoxicity against human MALME-3M cells assessed as cell growth at 10^-6 M after 24 hrs by SRB assay; assay type: functional; settings: read-out: Activity
[27] = Cytotoxicity against human MOLT4 cells assessed as cell growth at 10^-8 M after 24 hrs by SRB assay; assay type: functional; settings: MOLT-4, 24 h, read-out: Activity
[28] = test system: ACHN; experiment: Cytotoxicity against human ACHN cells after 24 hrs by SRB assay; assay type: functional
[29] = test system: CCRF-CEM; experiment: Cytotoxicity against human CCRF-CEM cells assessed as cell growth at 10^-8 M after 24 hrs by SRB assay; assay type: functional; settings: read-out: Activity
[30] = Cytotoxicity against human OVCAR5 cells assessed as cell growth at 10^-4 M after 24 hrs by SRB assay; assay type: functional; settings: OVCAR-5, 24 h, read-out: Activity
[31] = test system: SK-MEL-28; experiment: Cytotoxicity against human SK-MEL-28 cells after 24 hrs by SRB assay; assay type: functional, cell-based; settings: SK-MEL-28, 24 h
[32] = Cytotoxicity against human HOP92 cells assessed as cell growth at 10^-5 M after 24 hrs by SRB assay; assay type: functional; settings: HOP-92, 24 h, read-out: Activity
[33] = test system: NCI-H226; experiment: Cytotoxicity against human NCI-H226 cells assessed as cell growth at 10^-7 M after 24 hrs by SRB assay; assay type: functional; settings: NCI-H226, 24 h, read-out: Activity
[34] = Cytotoxicity against human UO31 cells assessed as cell growth at 10^-6 M after 24 hrs by SRB assay; assay type: functional; settings: UO-31, 24 h, read-out: Activity
[35] = test system: EKVX; experiment: Cytotoxicity against human EKVX cells assessed as cell growth at 10^-7 M after 24 hrs by SRB assay; assay type: functional; settings: read-out: Activity
[36] = test system: 786-0; experiment: Cytotoxicity against human 786-0 cells assessed as cell growth at 10^-4 M after 24 hrs by SRB assay; assay type: functional; settings: 786-0, 24 h, read-out: Activity
[37] = test system: M14; experiment: Cytotoxicity against human M14 cells assessed as cell growth at 10^-7 M after 24 hrs by SRB assay; assay type: functional; settings: M14, 24 h, read-out: Activity
[38] = read-out: LC50 (the source's name)
[39] = read-out: pLC50 (the source's name) (converted)

O=C(Nc1cc(-c2cccnc2)nc(NCCCN2CCOCC2)n1)c1cc(Br)cc(C(F)(F)F)c1
growth at 1 µM [1]: 82%
growth at 0.01 µM [2]: 107%
growth at 1 µM [3]: 84%
growth at 10 µM [4]: -73%
growth at 0.01 µM [5]: 92%
growth at 10 µM [6]: -27%
growth at 100 µM [7]: -100%
growth at 100 µM [8]: -52%
GI50 ([9]; read-out: GI50): 3.15 µM
CC50 [9, 38]: > 100 µM
TGI ([9]; read-out: TGI): 9.69 µM
GI50 ([9]; read-out: pGI50 (converted)): 3.16 µM
CC50 [9, 39]: > 100 µM
TGI ([9]; read-out: pTGI (converted)): 9.77 µM
growth at 0.1 µM [10]: 91%
growth at 0.1 µM [11]: 95%
growth at 1 µM [12]: 88%
growth at 10 µM [13]: 1%
growth at 1 µM [14]: 99%
growth at 10 µM [15]: 13%
growth at 10 µM [16]: 51%
growth at 0.01 µM [17]: 99%
growth at 10 µM [18]: -50%
GI50 [19]: 1.78 µM
CC50 [19, 38]: 6.89 µM
TGI ([19]; read-out: TGI): 3.49 µM
CC50 [19, 39]: 6.92 µM
TGI ([19]; read-out: pTGI (converted)): 3.47 µM
growth at 10 µM [20]: 5%
growth at 0.1 µM [21]: 95%
growth at 10 µM [22]: 29%
growth at 0.1 µM [23]: 92%
growth at 1 µM [24]: 94%
growth at 10 µM [25]: 27%
growth at 1 µM [26]: 90%
growth at 0.01 µM [27]: 99%
GI50 ([28]; read-out: GI50): 3.04 µM
CC50 [28, 38]: 44.6 µM
TGI ([28]; read-out: TGI): 11.3 µM
GI50 ([28]; read-out: pGI50 (converted)): 3.02 µM
CC50 [28, 39]: 44.7 µM
TGI ([28]; read-out: pTGI (converted)): 11.2 µM
growth at 0.01 µM [29]: 100%
growth at 100 µM [30]: -67%
IC50 [31]: 1.73 µM
GI50 ([31]; read-out: GI50): 1.73 µM
CC50 [31, 38]: 7.02 µM
TGI ([31]; read-out: TGI): 3.48 µM
GI50 ([31]; read-out: pGI50 (converted)): 1.74 µM
CC50 [31, 39]: 7.08 µM
TGI ([31]; read-out: pTGI (converted)): 3.47 µM
growth at 10 µM [32]: -10%
growth at 0.1 µM [33]: 93%
growth at 1 µM [34]: 69%
growth at 0.1 µM [35]: 80%
growth at 100 µM [36]: -87%
growth at 0.1 µM [37]: 95%
